Laboratory results as given in US20130324543A1, “REVERSAL OF HIGH BREAST CANCER RISK IN MAMMALS EXPOSED TO ESTROGENIC CHEMICALS IN UTERO BY ADULT EXPOSURE TO HDAC AND DNMT INHIBITORS” (Georgetown University, priority 2012, published 2013).

Legend:
[1] = Body weight and growth of in utero exposed pups; assay type: in vivo, C57BL/6 mice; conditions: mouse, in vivo
From the text: (§1) Additions to the basic diet were as follows: 1) cornstarch [control]; 2) EE2 0.1 ppm; 3) BPA 0.155 ppm; 4) GEN 500 ppm.

[2] = tested on: mammary gland; test: Mammary gland morphology of in utero exposed mice (whole mounts); assay type: in vivo, C57BL/6 mice; conditions: female mice, PND 27
Method: One of the two #4 abdominal mammary glands was dissected and fixed in Carnoy's fixative and processed into whole mounts as previously described (8). The other #4 abdominal gland was snap frozen in liquid nitrogen and stored in −80° C. for future analysis. One of the two thoracic #2-3 mammary glands was fixed in neutral buffered 10% formalin, embedded in paraffin and processed for histology using routine methods, and the other was snap frozen in liquid nitrogen, also stored in −80° C. for future analysis. Uterus was dissected, and one horn with the ovary and vagina attached was fixed in 10% formalin, embedded in paraffin and processed for histology, and the other horn and one ovary were frozen in liquid nitrogen and stored in −80° C.
To assess possible changes in mammary gland morphology, whole amounts of the 4th abdominal glands obtained on PND 27 were processed as previously described (4, 72). The total number of terminal end buds (TEBs) was counted. Identification of TEBs was based on the guidelines established by Russo and Russo (64). The total area (in pixels) of epithelium of the peripubertal (PND 27) mammary glands was analyzed by using ImageJ software (available through NIH web site) on digitized pictures of mammary whole mounts with ducts manually intensified black against white background (shown as an insert in FIG. 16). Ductal elongation (mammary epithelial outgrowth) on PND 50 was measured as the growth in millimeters from the end of the lymph node to the end of the epithelial tree. All the analyses were done blindly using an Olympus dissecting microscope.

[3] = tested on: mammary tumors; test: MPA/DMBA mammary tumorigenesis in mice exposed in utero to EE2, GEN or BPA (Example 5); assay type: in vivo, C57BL/6 mice; conditions: mouse, in vivo
From the text: as §1

[4] = tested on: mammary tumors; test: Acquired tamoxifen (TAM) resistance of mammary tumors in in utero exposed rats; assay type: in vivo; conditions: 14-week follow-up, 7% in the control group
[5] = tested on: CYP1B1; test: CYP1B1 expression (qRT-PCR) in mammary glands of F1-F3 rat offspring; assay type: in vivo, Sprague Dawley rats
Method: Mammary gland tissue obtained from 50-day-old F1-F3 generation offspring (n=5-6 per group per generation) were used. 1 μg of total RNA per sample was used as a template for random primed cDNA synthesis. The cDNA samples were used as templates for qRT-PCR analysis with specific primers for the target gene, rat CYP1B1 using QuantiTect SYBR green PCR kit (Qiagen Inc., Valencia, Calif.) and an ABI Prism 7900 Sequence Detection System. Each sample was run in triplicate. Absolute gene expression levels were determined using Applied Biosystems' SDS2.3 software and the standard curve method. Concentration of each sample was normalized to the reference gene 18S rRNA.

[6] = tested on: DNA adducts; test: MDA-DNA adduct levels in mammary glands of F1-F3 rat offspring; assay type: in vivo, Sprague Dawley rats; conditions: F1-F3 generation offspring
[7] = tested on: mammary glands; test: Cell proliferation (Ki-67 immunohistochemistry) in PND50 mammary glands; assay type: in vivo, Sprague Dawley rats
Method: To determine whether the increase in DNA adduct formation may reflect increased cell proliferation, expression of Ki-67, a marker of cell proliferation, was assessed on PND50 mammary glands using immunohistochemistry. The ki-67 status of each sample was evaluated according to a modified version of the scoring system proposed by Allred et al. The total score for each sample was calculated as the sum of the estimated proportion of positive-staining cells ([…]) plus the estimated intensity of positive-staining cells (0-4).

[8] = tested on: miRNAs; test: miRNA expression in adult mammary glands of in utero exposed rats; assay type: in vivo
Method: Since several miRNAs are known to be suppressed by E2 in MCF-7 human breast cancer cells (Maillot et al. Cancer Res 2009), we determined whether persistent changes in miRNA expression may be seen in the adult mammary glands of rats exposed to E2 in utero. miRNAs were measured using applied Biosystems TaqManR Array Rodent MicroRNA.

C#C[C@]1(O)CC[C@H]2[C@@H]3CCc4cc(O)ccc4[C@H]3CC[C@@]21C [EE2, ethinyl estradiol]
birthweight, or postnatal weight development [1]: did not alter
total epithelial area of the glands [2]: significantly increased
mammary tumorigenesis (onset of tumor growth and cumulative tumor burden) [3]: Enhanced mammary tumorigenesis
acquired resistance to TAM [4]: 50%
CYP1B1 expression in normal mammary glands ([5]; F1-F3 generation offspring): up-regulated
expression levels of CYP1B1 ([5]; F1 and F2 generations, vs control or HF offspring): significantly higher
CYP1B1 expression levels ([5]; F3 generation, vs controls): higher than in the controls
DNA adduct formation by measuring MDA levels [6]: mimicked the findings of changes in CYP1B1 expression
cell proliferation by ki-67 ([7]; F1 generation): non-significantly increased
cell proliferation by ki-67 ([7]; F2 generation, compared to the controls): significantly lower
expression of miR-26a, miR-101, miR-148, miR-152, miR-194, miR-26a/b ([8]; mammary glands of rats exposed in utero): suppressed
expression of several miRNAs in the mammary gland ([8]; maternal exposure): permanent down-regulation
